Reference: PubChem BioAssay AID600 (The Scripps Research Institute Molecular Screening Center, 2007)
Calls of active or inactive are those of the source.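 Rule for the calls: active = IC50 at or below 10 micromolar; inactive = IC50 above 10 micromolar.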

The molecules below were run against Steroidogenic factor 1 (Homo sapiens) (UniProt Q13285) (assay: SF-1 inhibitor potency, dose response, cell-based, CHO-K1, Gal4-SF-1 LBD, luciferase luminescence (AID 600)). Conditions: CHO-K1 Gal4-SF-1 LBD luciferase reporter.
Chain of Steroidogenic factor 1 (Homo sapiens) (Q13285 whole entry, looked up, the tested form may be a part): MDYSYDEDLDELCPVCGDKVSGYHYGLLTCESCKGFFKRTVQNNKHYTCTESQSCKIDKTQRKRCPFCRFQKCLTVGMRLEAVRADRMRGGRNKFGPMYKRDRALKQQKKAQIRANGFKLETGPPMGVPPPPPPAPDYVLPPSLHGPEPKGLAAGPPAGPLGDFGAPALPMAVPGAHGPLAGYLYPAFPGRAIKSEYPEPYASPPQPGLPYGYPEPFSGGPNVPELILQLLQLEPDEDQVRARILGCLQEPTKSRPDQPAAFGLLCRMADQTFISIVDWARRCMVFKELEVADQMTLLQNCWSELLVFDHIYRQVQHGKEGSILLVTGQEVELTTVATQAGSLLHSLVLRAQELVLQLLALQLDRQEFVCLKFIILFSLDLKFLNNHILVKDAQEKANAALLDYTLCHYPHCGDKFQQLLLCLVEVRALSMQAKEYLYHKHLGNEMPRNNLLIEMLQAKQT
`O=C(/C=C\Nc1ccccn1)c1ccc(Cl)cc1` was tested, and the IC50 was 6.09 µM. In the case of `CN(C)c1ccc(N/C=C/C(=O)c2ccccc2)cc1`, the IC50 is reported as > 11 µM (inactive). With `O=C(/C=C\Nc1cccc(F)c1)c1ccc2c(c1)OCO2` the IC50 was 4.65 µM. In the case of `Cc1ccc(C(=O)/C=C/Nc2ccccn2)cc1`, the IC50 is reported as > 11 µM (inactive). With `CCOC(=O)C1=C(Cn2cnc3ccccc32)NC(=O)NC1c1cc(C)ccc1C` (stereo not drawn) the IC50 was “inactive”. In the case of `CSC1=C(C#N)C(c2ccc(Cl)cc2)C2=C(CC(C)(C)CC2=O)N1` (stereo not drawn), the IC50 is reported as “inactive”. `CCOc1ccccc1-n1c(SCC(=O)Nc2ccc(CC)cc2)nc2n[nH]c(C)c2c1=N` showed an IC50 of 5.99 µM. `O=S(=O)(c1ccc2c(c1)C(=NO)c1cc(S(=O)(=O)N3CCCCC3)ccc1-2)N1CCCCC1` showed an IC50 of 1.51 µM. With `COc1cc(C2C(C#N)=C(N)Oc3cc(N(C)C)ccc32)cc2c1OCO2` (stereo not drawn) the IC50 was > 3.67 µM (inactive). `COc1cc(C2C(C#N)=C(N)Oc3cc(N)ccc32)cc(OC)c1OC` (stereo not drawn) gave an IC50 of 7.92 µM. In the case of `CCN(CC)c1ccc2c(c1)OC(N)=C(C#N)C2c1cccnc1` (stereo not drawn), the IC50 is reported as > 3.67 µM (inactive). For `N#CC1=C(N)C(C#N)(C#N)[C@H](c2ccncc2)[C@H]2CN(C(=O)OCc3ccccc3)CC=C12`, the IC50 was “inactive”. For `CN(C)c1ccc2c(c1)OC(N)=C(C#N)C2c1cccc(F)c1` (stereo not drawn), the IC50 was “inactive”. In the case of `COC(=O)C1=C(CN2CCCc3ccccc32)NC(=O)NC1c1ccc(F)cc1` (stereo not drawn), the IC50 is reported as 5.34 µM. With `COC(=O)c1ccc(N2C(=O)CC(N3CCC(n4c(=O)[nH]c5ccccc54)CC3)C2=O)cc1` (stereo not drawn) the IC50 was > 99 µM (inactive). In the case of `COc1cc(/C=N/O)ccc1OCc1ccc(C(=O)O)cc1`, the IC50 is reported as 1.16 µM. In the case of `O=C(/C=C\Nc1ccc2c(c1)OCO2)c1ccccn1`, the IC50 is reported as “inactive”. `CC(=O)CC1OC(=O)C(Br)=C1NCc1ccccc1` (stereo not drawn) was tested, and the IC50 was > 11 µM (inactive).
